Test results as given in PubChem BioAssay AID2060900 (Molecular Pharmacology Branch, DTP, NCI, 2025).
Several values for one entry are separate records, joined by “and”; a condition that tells them apart may be missing. Identical values can stand only once.

Test system: 521955-158-R2-J5-PDC complex spheroids, viability
Assay: Anticancer human tumor 521955-158-R2-J5-PDC patient-derived pancreatic carcinoma cell line growth inhibition [RAS]
Conditions: for viability, T/C: stronger effect = lower value
Text: RAS pathway inhibitors in Combinations in Complex Spheroids
A high-throughput screen of multi-cell type tumor spheroids was designed to identify active combinations of RAS pathway inhibitors and targeted small molecules. Complex spheroids include a stromal component modeled by human endothelial cells (HUVEC) and fibroblasts modeled by human mesenchymal stem cells (MSCs). The concentration ranges selected for each drug and investigational agent were based upon clinically achievable concentrations if the clinical Cmax of the agent was known.
Compounds. The drugs and investigational agents: abemaciclib (NSC768073), cobimetinib (NSC768068), divarasib (GDC6063, NSC841802), docetaxel (NSC628503), GDC-1971 (RLY-1971, NSC841576), gemcitabine (NSC613327), inavolisib (NSC800729), ipatasertib (NSC767898), KB-0742 (NSC834161), MRTX-1133 (NSC836407), osimertinib (NSC779217), RMC-4630 (NSC839698), RMC-6236 (NSC851965), RMC-6291 (NSC852671), Ro-3306 (NSC812927), sapanisertib (NSC764658), SN-38 (NSC673596), staurosporine (NSC755774), SY5609 (NSC837396), and tovorafenib (DAY101, NSC766906), were obtained from the National Cancer Institute (NCI) Developmental Therapeutics Program Chemical Repository. The FDA-approved anticancer drug set is available from the NCI Developmental Therapeutics Program. […] The stock solutions were prepared in dimethyl sulfoxide (DMSO, Sigma-Aldrich, St. Louis, MO, cat. D2650) at 800-fold the tested concentration and stored at -70 degrees C prior to their use. All drugs and investigational agents were tested over a range starting from a high concentration at or near the clinical Cmax and decreasing in half-log increments. If the clinical Cmax for an agent had not been determined, the highest concentration tested was 10 microM.
Cell Culture. All cells were maintained in an incubator at 37 degrees C and 5% CO2 with 95% humidity. The PDC lines were cultured according to standard operating procedures established by the NCI PDMR. All PDCs were thawed and cultured in Matrigel-coated flasks prepared with a working solution of 1X Ham's F-12 nutrient mix, without supplementation (Invitrogen, Waltham, MA, cat. 11765054), 100 U/mL penicillin-streptomycin (Invitrogen, cat. 15140122), and 2.5% Matrigel (Corning Inc., Corning, NY, cat. 354248) for the first three passages. The 362531-283-R-J2-PDC and 782815-120-R-J1-PDC lines were cultured in 6C/Colon 1B media, which includes advanced DMEM/F-12 (Thermo Fisher Scientific, cat. 12634028), 10 mM HEPES (Thermo Fisher Scientific, cat. 15630080), 1X GlutaMAX supplement (Thermo Fisher Scientific, cat. 35050061), 0.1 mg/mL primocin (InvivoGen, San Diego, CA, cat. ant-pm-2), 10% defined fetal bovine serum, heat inactivated (HyClone Laboratories Inc., Logan, UT, cat. SH30070.03HI), 50% L-WRN conditioned media (ATCC, cat. CRL-3276), 1.25 mM N-Acetyl-L-cysteine (Sigma-Aldrich, cat. A9165), 10 mM nicotinamide (Sigma-Aldrich, cat. N0636), 1X B-27 supplement (Thermo Fisher Scientific, cat. 17504044), 1X N-2 supplement (Thermo Fisher Scientific, cat. 17502048), 50 ng/mL human EGF (Thermo Fisher Scientific, cat. PHG0311), and 10 microM Y-27632 dihydrochloride (Tocris Bioscience, cat. 1254). The K12877-001-R-J1-PDC line was cultured in 6I media, which includes all 6C/Colon 1B media plus 10 ng/mL human FGF-10 (PeproTech, cat. 100-26), 1 ng/mL human FGF-2 (PeproTech, cat. 100-18B), 1 µM prostaglandin E2 (Tocris Bioscience, cat. 2296), […] hydrocortisone (Sigma-Aldrich, cat. H4001), and […] bovine insulin (Sigma-Aldrich, cat. I6634). The K86415-001-R-J1-PDC line was cultured in 6D media, which includes all 6C/Colon 1B media components minus the L-WRN conditioned media. The 485176-168-R4-J1-PDC was cultured in PANC media, which includes all 6C/Colon 1B media plus 100 ng/mL human FGF-10 (PeproTech, cat. 100-26), 500 nM SB-431542 (Selleckchem, cat. S1067), and 10 nM gastrin (Tocris Bioscience, cat. 3006). […]
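Also: compound exposure lasted seven days before the viability read.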
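For viability, T/C in this document: spheroids also contain HUVEC endothelial cells and mesenchymal stem cells as stroma.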

Compound	IC50 (compound alone, run of 06/10/2024)	IC50 (curve of compound)	viability, T/C (compound 0.0316 µM)	viability, T/C (compound 0.316 µM)	viability, T/C (compound 1 µM)	viability, T/C (compound 3.16 µM)	viability, T/C (compound 0.1 µM)	viability, T/C (compound 10 µM)
C=CC(=O)N1CCN(c2nc(OCC3CCCN3C)nc3c(F)c(-c4nc(N)cc(C)c4C(F)(F)F)c(Cl)cc23)C(C)C1 (stereo not drawn)	> 1 µM	> 1 µM						
CC(=O)OC12COC1CC(O)C1(C)C(=O)C(O)C3=C(C)C(OC(=O)C(O)C(NC(=O)OC(C)(C)C)c4ccccc4)CC(O)(C(OC(=O)c4ccccc4)C21)C3(C)C (stereo not drawn)		< 0.0316 µM	38.4% [middle of 4 runs]	27.9% [middle of 4 runs]	35% [middle of 4 runs]	42.6% [middle of 4 runs]		
CC(C)NCC(C(=O)N1CCN(c2ncnc3c2C(C)CC3O)CC1)c1ccc(Cl)cc1 (stereo not drawn)		> 10 µM	97.9% [middle of 4 runs]	96% [middle of 4 runs]	60.5% [middle of 4 runs]	75.7% [middle of 4 runs]	99.3% [middle of 4 runs]	72.5% [middle of 4 runs]
CC(Nc1ccc2c(c1)OCCn1cc(N3C(=O)OCC3C(F)F)nc1-2)C(N)=O (stereo not drawn)		136 nM [middle of 4 runs]		41.1% [middle of 4 runs]	31% [middle of 4 runs]		57.5% [middle of 4 runs]	23.5% [middle of 4 runs]
CC1(O)CCCC1n1c(=O)c(C(F)F)cc2cnc(NC3CCN(S(C)(=O)=O)CC3)nc21 (stereo not drawn)		5.85 µM [middle of 4 runs]	92.5% [middle of 4 runs]		75.7% [middle of 4 runs]	118% [middle of 4 runs]	76.6% [middle of 4 runs]	14.9% [middle of 4 runs]
CCC(CC)c1cc(NC2CCC(N)C2)n2nccc2n1 (stereo not drawn)		1.97 µM [middle of 4 runs]	110% [middle of 4 runs]	122% [middle of 4 runs]	111% [middle of 4 runs]	9.87% [middle of 4 runs]	91.2% [middle of 4 runs]	10.2% [middle of 4 runs]
C[C@@H](NC(=O)c1ncnc(N)c1Cl)c1ncc(C(=O)Nc2cc(C(F)(F)F)c(Cl)cn2)s1		> 10 µM and 5.73 µM						60.9% [middle of 4 runs]
Cc1nc(N2CCC3(CC2)COC(C)C3N)c(CO)nc1Sc1ccnc(N)c1Cl (stereo not drawn)		> 10 µM	85.6% [middle of 4 runs]	69.2% [middle of 4 runs]	67.1% [middle of 4 runs]	67% [middle of 4 runs]	71.7% [middle of 4 runs]	57% and 57.9% (2×) and 51.2%
NC1c2ccccc2OC12CCN(c1cnc3c(N4CCCc5ncccc54)n[nH]c3n1)CC2 (stereo not drawn)		> 10 µM and 1.72 µM	67.5% [middle of 4 runs]	55.2% [middle of 4 runs]	53.2% [middle of 4 runs]	54.8% [middle of 4 runs]	58.8% [middle of 4 runs]	61.6% [middle of 4 runs]
